Source: the NIST ThermoML archive (doi:10.1021/acs.jced.5b00860)

Conditions: for surface tension liquid-gas: Maximal bubble pressure; for viscosity / mass density / electrical conductivity: 101.33 kPa, Liquid; for viscosity: Concentric cylinders viscometry; for mass density: Vibrating tube method; for electrical conductivity: Alternating current cell with electrodes

CCn1cc[n+](C)c1C.O=S(=O)([O-])O [1-ethyl-2,3-dimethylimidazolium hydrogen sulfate]
Conditions | electrical conductivity [S/m] | mass density [kg/m3] | surface tension liquid-gas [mN/m] | viscosity [mPa·s]
288.15 K | – | 1261.94 | 50.4 | 375
293.15 K | – | 1258.09 | 50.1 | 263.6
298.15 K | 0.15 | 1254.43 | 49.8 | 186
303.15 K | 0.193 | 1250.77 | 49.5 | 134.9
308.15 K | 0.244 | 1247.08 | 49.3 | 98.41
313.15 K | 0.308 | 1243.3 | 49 | 72.94
318.15 K | 0.377 | 1239.59 | 48.7 | 53.72
323.15 K | 0.458 | 1235.8 | 48.4 | 40.12
328.15 K | 0.554 | 1232.2 | 48.1 | 30.2
333.15 K | 0.665 | 1228.52 | 47.8 | 22.37
338.15 K | 0.787 | 1224.82 | 47.5 | 17.96
343.15 K | 0.925 | 1221.18 | 47.2 | 12.57

CCCCCn1cc[n+](C)c1C.O=S(=O)([O-])O [2,3-dimethyl-1-pentylimidazolium hydrogen sulfate]
Conditions | electrical conductivity [S/m] | mass density [kg/m3] | surface tension liquid-gas [mN/m] | viscosity [mPa·s]
288.15 K | – | 1196.47 | 42.5 | 772.4
293.15 K | – | 1193.23 | 42.2 | 597
298.15 K | 0.075 | 1190.07 | 42 | 462.8
303.15 K | 0.105 | 1186.89 | 41.7 | 358.7
308.15 K | 0.145 | 1183.89 | 41.5 | 281.1
313.15 K | 0.197 | 1180.69 | 41.2 | 224.2
318.15 K | 0.257 | 1177.69 | 40.9 | 176
323.15 K | 0.324 | 1174.61 | 40.7 | 140.1
328.15 K | 0.399 | 1171.29 | 40.4 | 113
333.15 K | 0.485 | 1168.33 | 40.1 | 90
338.15 K | 0.573 | 1165.21 | 39.9 | 73.77
343.15 K | 0.675 | 1162.18 | 39.6 | 57.54

CCCCn1cc[n+](C)c1.O=P([O-])(O)O [1-butyl-3-methylimidazolium dihydrogen phosphate]
Conditions | electrical conductivity [S/m] | mass density [kg/m3] | surface tension liquid-gas [mN/m] | viscosity [mPa·s]
288.15 K | 0.303 | 1183.24 | 44.2 | 198.7
293.15 K | 0.359 | 1179.91 | 43.9 | 159
298.15 K | 0.419 | 1176.54 | 43.6 | 125.6
303.15 K | 0.483 | 1173.18 | 43.2 | 101.1
308.15 K | 0.555 | 1169.69 | 42.9 | 80.78
313.15 K | 0.628 | 1166.3 | 42.6 | 65.21
318.15 K | 0.707 | 1162.8 | 42.3 | 53.62
323.15 K | 0.788 | 1159.53 | 42 | 43.67
328.15 K | 0.868 | 1156.13 | 41.7 | 36.75
333.15 K | 0.965 | 1152.67 | 41.4 | 29.77
338.15 K | 1.06 | 1149.36 | 41.1 | 25.21
343.15 K | 1.16 | 1146.03 | 40.8 | 20.96

CCCCCn1cc[n+](C)c1.O=C([O-])O [3-methyl-1-pentylimidazolium hydrogen carbonate]
Conditions | electrical conductivity [S/m] | mass density [kg/m3] | surface tension liquid-gas [mN/m] | viscosity [mPa·s]
288.15 K | 0.143 | 1148.91 | 31.9 | 179.6
293.15 K | 0.193 | 1145.21 | 31.4 | 138.9
298.15 K | 0.248 | 1141.79 | 30.9 | 108.6
303.15 K | 0.305 | 1138.28 | 30.4 | 85.09
308.15 K | 0.367 | 1134.77 | 29.9 | 66.77
313.15 K | 0.428 | 1131.33 | 29.4 | 53.12
318.15 K | 0.489 | 1127.75 | 29 | 42.53
323.15 K | 0.553 | 1124.28 | 28.5 | 33.29
328.15 K | 0.612 | 1120.73 | 28 | 26.92
333.15 K | 0.671 | 1117.27 | 27.5 | 21.42
338.15 K | 0.733 | 1113.75 | 26.9 | 17.65
343.15 K | 0.794 | 1110.3 | 26.5 | 14.71

CCCn1cc[n+](C)c1C.O=S(=O)([O-])O [2,3-dimethyl-1-propylimidazolium hydrogen sulfate]
Conditions | electrical conductivity [S/m] | mass density [kg/m3] | surface tension liquid-gas [mN/m] | viscosity [mPa·s]
288.15 K | – | 1239.79 | 47.7 | 500.4
293.15 K | – | 1236.23 | 47.4 | 362.3
298.15 K | 0.123 | 1232.82 | 47.2 | 263.7
303.15 K | 0.162 | 1229.24 | 46.9 | 194.2
308.15 K | 0.211 | 1225.73 | 46.6 | 142.2
313.15 K | 0.267 | 1222.13 | 46.3 | 107
318.15 K | 0.333 | 1218.82 | 46.1 | 81.27
323.15 K | 0.409 | 1215.29 | 45.8 | 62.04
328.15 K | 0.496 | 1211.74 | 45.5 | 47.83
333.15 K | 0.6 | 1208.35 | 45.2 | 35.71
338.15 K | 0.711 | 1204.81 | 44.9 | 27.47
343.15 K | 0.832 | 1201.46 | 44.7 | 21.17

CCCCn1cc[n+](C)c1C.O=S(=O)([O-])O [1-butyl-2,3-dimethylimidazolium hydrogen sulfate]
Conditions | electrical conductivity [S/m] | mass density [kg/m3] | surface tension liquid-gas [mN/m] | viscosity [mPa·s]
288.15 K | – | 1217.09 | 45.3 | 628.5
293.15 K | – | 1213.74 | 45 | 469.7
298.15 K | 0.1 | 1210.61 | 44.8 | 355.2
303.15 K | 0.135 | 1207.35 | 44.5 | 271.3
308.15 K | 0.179 | 1203.89 | 44.2 | 206.3
313.15 K | 0.231 | 1200.63 | 43.9 | 157.2
318.15 K | 0.292 | 1197.49 | 43.7 | 121.8
323.15 K | 0.36 | 1194.03 | 43.4 | 95.86
328.15 K | 0.441 | 1190.8 | 43.1 | 74.49
333.15 K | 0.531 | 1187.57 | 42.8 | 60.7
338.15 K | 0.631 | 1184.29 | 42.6 | 46.52
343.15 K | 0.739 | 1180.99 | 42.3 | 38.13

CCCCC[n+]1ccn(C)c1.O=P([O-])(O)O [1-methyl-3-pentylimidazolium dihydrogen phosphate]
Conditions | electrical conductivity [S/m] | mass density [kg/m3] | surface tension liquid-gas [mN/m] | viscosity [mPa·s]
288.15 K | 0.164 | 1148.62 | 41.8 | 327.8
293.15 K | 0.201 | 1145.42 | 41.5 | 259.1
298.15 K | 0.243 | 1142.29 | 41.2 | 205
303.15 K | 0.29 | 1139.09 | 40.9 | 162.6
308.15 K | 0.341 | 1135.81 | 40.6 | 130
313.15 K | 0.398 | 1132.55 | 40.3 | 103.3
318.15 K | 0.457 | 1129.43 | 40 | 84.04
323.15 K | 0.523 | 1126.27 | 39.7 | 68.45
328.15 K | 0.588 | 1122.94 | 39.3 | 56.55
333.15 K | 0.665 | 1119.93 | 39 | 46.91
338.15 K | 0.744 | 1116.63 | 38.7 | 38.55
343.15 K | 0.825 | 1113.49 | 38.4 | 31.43
